Reference: PMC6444592, “Citrullination of HP1γ chromodomain affects association with chromatin” (Epigenetics & Chromatin, 2019)

Columns and labels:
PADI4 = experiment: in vitro citrullination (deimination) assay of HP1γ; assay type: biochemical, human; conditions: with calcium; for citrullination by PADI4, in words: GST fusion proteins, anti-peptidyl-citrulline immunoblot, n = 3 (p values 0.002, 0.003, 0.008)
Experimental: For immunoblotting, cells were lysed in 2 × Laemmli buffer and sonicated in a water bath (Fisherbrand) for 3 min to shear genomic DNA, spun down at full speed in a microfuge for 15 min and incubated for 5 min at 95 °C. Proteins were resolved by SDS-PAGE, transferred to nitrocellulose membrane (Millipore) using wet transfer (transfer buffer: 192 mM glycine, 25 mM Tris.HCl pH8.8) and incubated in blocking solution (5% BSA in TBS containing 0.5% Tween-20 for citrulline sensitive antibodies and 5% non-fat milk powder in TBS containing 0.1% Tween-20 for all other antibodies) for 1 h at room temperature (RT). Membranes were incubated with primary antibody at 4 °C o/n and appropriate HRP-conjugated secondary antibody for 1 h at RT. Membranes were then incubated for enhanced chemiluminescence (ECL, Promega), and proteins were detected by exposure to X-ray film or using the ChemiDoc™ MP imaging system (Bio-Rad). Images were quantified using ImageJ analysis software. Primary antibodies diluted in blocking solution were used to detect citrullinated histone H3R2 (H3R2-Cit, Abcam ab176843 at 1:1000 dilution), HP1γ (Millipore 05-690 MAB clone 42s2 [16] at 1:1000 dilution), β-Tubulin (Abcam ab6046 at 1:1000 dilution) and peptidyl-citrulline (Millipore MABN328, clone F95 [48] at 1:1000 dilution). HRP-conjugated secondary antibodies diluted in blocking solution were used against mouse IgG (Dako, P0447 at 1:5000 dilution), rabbit IgG (Abcam, ab6721 at 1:20,000 dilution) and sheep IgG (Abcam, ab6747 at 1:5000 dilution).
In vitro deimination of GST-HP1 variants was carried out as described previously [22]. In vitro deimination assays were performed in the presence and absence of 100 ng H3(1–16) or H3K9me3 peptides as appropriate. Samples were resuspended in 1 × Laemmli buffer for immunoblot analysis.

H3K9me3(1–16) peptides [1] = experiment: peptide pulldown assay; assay type: binding; conditions: 300 mM NaCl HBS-EP; Coomassie gel; n = 3 (p values 0.021, 0.008; ns 0.181)
Experimental: H3K9me3 or unmethylated H3(1–16) peptides, linked to Dynabeads MyOne streptavidin T1 (Thermo Fisher Scientific), were used in pulldown assays with eluted GST-HP1 in HBS-EP (300 mM NaCl, 10 mM HEPES KOH pH 7.4, 5 mM EDTA and 0.2% NP-40). Pulldown assays were performed in 300 mM NaCl HBS-EP as previously described. Samples were resuspended in 2 × Laemmli buffer and resolved by SDS-PAGE followed by Coomassie-blue staining. Images were quantified using ImageJ software.

H3K9me3(1–16) peptides [2] = experiment: bio-layer interferometry (BLI); assay type: binding; conditions: 20 mM Hepes KOH pH 7.2, 70 mM KCl, GST fusion, association 120 s, dissociation 120 s, WT 28.0 μM, R38/9K 25.5 μM, R38/9A 28.3 μM and lower concentrations
Experimental: Recombinant mouse full-length HP1 wildtype and mutant proteins were expressed in (as GST fusion proteins), and purified from, Escherichia coli as described. Proteins were concentrated using Amicon Ultra centrifugation filters with a 30 kDa cutoff (Millipore), washed into binding buffer (20 mM Hepes KOH pH 7.2, 70 mM KCl, 1 mM DTT, 0.1% Tween-20, 5% glycerol). Protein concentrations were determined by Bradford protein assay against a BSA standard, and purity was verified by SDS-PAGE followed by Coomassie-blue staining. Real-time binding assays of GST-HP1γ were performed using the BLItz® system (ForteBio) in binding buffer (+ 0.1% BSA). Biotinylated H3(1–16) peptides (NH2-[…](me3)STGGKAP-Biotin) were immobilised to Dip and Read High Precision Streptavidin (SAX) Biosensors (ForteBio), and kinetics for a range of protein concentrations were measured under advanced kinetics settings (1. initial baseline measuring buffer only: 30 s, 2. loading of peptides onto sensors: 120 s, 3. effective baseline measurement: 30 s, 4. association of GST-HP1γ proteins: 120 s, 5. dissociation of GST-HP1γ proteins: 120 s). The data were normalised to the effective baseline signal by subtracting the average baseline value (150–180 s) from each data point (150–420 s). […] Raw data are summarised in Additional file 3: Table S1.

mESCs [3] = experiment: immunoprecipitation of endogenous HP1γ and anti-peptidyl-citrulline immunoblot; assay type: cell-based, mouse; conditions: −LIF 72 h versus +LIF; nuclear lysates; three replicates
Experimental: For immunoblotting, cells were lysed in 2 × Laemmli buffer and sonicated in a water bath (Fisherbrand) for 3 min to shear genomic DNA, spun down at full speed in a microfuge for 15 min and incubated for 5 min at 95 °C. Proteins were resolved by SDS-PAGE, transferred to nitrocellulose membrane (Millipore) using wet transfer (transfer buffer: 192 mM glycine, 25 mM Tris.HCl pH8.8) and incubated in blocking solution (5% BSA in TBS containing 0.5% Tween-20 for citrulline sensitive antibodies and 5% non-fat milk powder in TBS containing 0.1% Tween-20 for all other antibodies) for 1 h at room temperature (RT). Membranes were incubated with primary antibody at 4 °C o/n and appropriate HRP-conjugated secondary antibody for 1 h at RT. Membranes were then incubated for enhanced chemiluminescence (ECL, Promega), and proteins were detected by exposure to X-ray film or using the ChemiDoc™ MP imaging system (Bio-Rad). Images were quantified using ImageJ analysis software. Primary antibodies diluted in blocking solution were used to detect citrullinated histone H3R2 (H3R2-Cit, Abcam ab176843 at 1:1000 dilution), HP1γ (Millipore 05-690 MAB clone 42s2 [16] at 1:1000 dilution), β-Tubulin (Abcam ab6046 at 1:1000 dilution) and peptidyl-citrulline (Millipore MABN328, clone F95 [48] at 1:1000 dilution). […]

mESCs [4] = experiment: live-cell single-particle tracking, 13.5 ms, jump distance analysis; assay type: cell-based, mouse; conditions: for Diffusion coefficient, Bound / Diffusion coefficient, Diffusing / Percentage, Bound / Percentage, Diffusing: 13.5 ms
Experimental: Parental E14 mouse embryonic stem cell (mESC) line was profiled by transcriptome analysis, qPCR and potency assays and was routinely tested for mycoplasma contamination and tested negative. Cells were cultured in DMEM (Gibco) supplemented with 15% standard FCS (Gibco), 0.1 mM non-essential amino acids (Gibco), 1% penicillin/streptomycin, 2 mM L-glutamine (Gibco), 1 mM sodium pyruvate (Gibco), 0.1 mM β-mercaptoethanol (Life Technologies) and 10^6 units/l mLIF (ESGRO, Millipore). E14 cells were stored in incubators at 37 °C in 7.5% CO2 (100% humidity) and maintained in 0.1% gelatin coated 10-cm culture dishes with 1:6 passaging every 2 days. Media was changed on a daily basis. E14 ESCs expressing mouse mEos3.2–HaloTag-HP1 fusion proteins were generated by transfecting appropriate pSB7 plasmids into E14 cells using Lipofectamine 2000 transfection reagent (Invitrogen), followed by selection in 600 µg/ml geneticin (Life Technologies). After 2 weeks of geneticin selection, cells were sorted using a Sony SH800S cell sorter for the expression of mEos3.2. Differentiation of ESCs was induced by LIF withdrawal. ESCs cultured in complete ES cell media (+ LIF) were trypsinised and washed twice in 1x PBS to remove residual LIF, seeded into ES cell media without LIF and incubated for 24, 48 or 72 h.
An IX73 Olympus inverted microscope was used with circularly polarised laser beams aligned and focused at the back aperture of an Olympus 1.40 NA 100 × oil objective (Universal Plan Super Apochromat, 100 × , NA 1.40, UPLSAPO100XO/1.4). Continuous wavelength diode laser light sources used include a 561-nm (Cobolt, Jive 200, 200 mW) and a 405-nm laser (Stradus, Toptica, 405–100, 100 mW). Oblique angle illumination was achieved by aligning the laser off axis such that the emergent beam at the sample interface was near-collimated and incident at an angle slightly less than the critical angle θc ~ 67° for a glass/water interface. This generated a ~ 50 μm diameter excitation footprint. The power of the collimated beams at the back aperture of the microscope was 10 kW/cm^2 and 10–100 W/cm^2 for the 561-nm and 405-nm laser beams, respectively. The lasers were reflected by dichroic mirrors (Semrock, Di01-R405/488/561/635). The fluorescence emission was collected through the same objective and then further filtered using a combination of long-pass and band-pass filters (BLP01-561R and FF01-587/35 for 561 nm excitation). The emission signal was projected onto an EMCCD (Photometrics, Evolve 512 Delta) with an electron multiplication gain of 250 ADU/photon operating in a frame transfer mode.
mESCs expressing mEos3.2–HaloTag-tagged HP1γ were passaged 2 days before imaging onto 35-mm glass bottom dishes No 1.0 (MatTek Corporation P35G-1.0-14-C Case) in phenol red-free serum and LIF conditions, if not stated otherwise. Just before single-particle tracking (SPT) imaging experiments, cells were labelled with 0.5 nM HaloTag–JF549 ligand for at least 15 min, followed by two washes in PBS and a 30-min incubation at 37 °C in media, before imaging the cells in fresh phenol red-free serum and LIF conditions. Cells were under-labelled to prevent overlap of fluorophores during SPT. Using 561 nm excitation, fluorescence images were collected as movies of 10,000 frames at 13.5 ms or 1000 to 5000 frames at 500 ms exposure. For live-cell tracking, data were collected for three biological replicates on separate dishes and the average values compared.
Live-cell 13.5-ms single-molecule traces were analysed using software that detects single-molecule trajectories from SPT movies. Briefly, the code detected puncta positions in each image frame using a brightness-weighted centroid after applying a band-pass filter to remove low-frequency background and high-frequency noise from the image data. To track the HP1 single molecules, only fluorescent puncta smaller than 3 pixels and with a signal to noise greater than 8 were analysed. […]

Substance: R39K: HP1γ with R39 substituted with lysine
- citrullination by PADI4, in words (PADI4): abolished

Substance: HP1γR38/9K: HP1γ with both R38 and R39 mutated to lysine
- binding in pulldown, in words (H3K9me3(1–16) peptides [1]): maintained binding to H3K9me3 peptides
- enhancement of citrullination by H3K9me3 peptides, in words (PADI4; H3K9me3(1–16) peptides, mutant used as substrate): abolished
- BLI binding, in words (H3K9me3(1–16) peptides [2]): binds H3K9me3 peptides with similar affinity to the WT protein
- BLI binding, in words (H3K9me3(1–16) peptides [2]; listed as R38/9K): maintained binding to H3K9me3 peptides

Substance: heterochromatin protein 1 gamma [HP1γ]
- binding in pulldown, in words (H3K9me3(1–16) peptides [1]): specifically binds to H3K9me3 peptides
- citrullination by PADI4, in words (PADI4): PADI4 citrullinates HP1γ in vitro
- citrullination of endogenous HP1γ in differentiating mESCs (mESCs [3]): significantly less citrullinated in differentiating mESCs

Substance: HP1γI165K: chromoshadow domain (CSD) mutant HP1γI165K, which prevents dimerisation of HP1γ [reference compound]
- Diffusion coefficient, Bound (mESCs [4]; +LIF, replicate i): 0.081 µm2s-1
- Diffusion coefficient, Diffusing (mESCs [4]; +LIF, replicate i): 1.500 µm2s-1
- Percentage, Bound (mESCs [4]; +LIF, replicate i): 32.7%
- Percentage, Diffusing (mESCs [4]; +LIF, replicate i): 67.3%
- Diffusion coefficient, Bound (mESCs [4]; +LIF, replicate ii): 0.100 µm2s-1
- Diffusion coefficient, Diffusing (mESCs [4]; +LIF, replicate ii): 1.485 µm2s-1
- Percentage, Bound (mESCs [4]; +LIF, replicate ii): 20.9%
- Percentage, Diffusing (mESCs [4]; +LIF, replicate ii): 79.1%
- Diffusion coefficient, Bound (mESCs [4]; +LIF, replicate iii): 0.00228 µm2s-1
- Diffusion coefficient, Diffusing (mESCs [4]; +LIF, replicate iii): 1.500 µm2s-1
- Percentage, Bound (mESCs [4]; +LIF, replicate iii): 0.4%
- Percentage, Diffusing (mESCs [4]; +LIF, replicate iii): 99.6%
- Diffusion coefficient, Bound (mESCs [4]; +LIF, replicate iv): 0.023 µm2s-1
- Diffusion coefficient, Diffusing (mESCs [4]; +LIF, replicate iv): 1.500 µm2s-1
- Percentage, Bound (mESCs [4]; +LIF, replicate iv): 4%
- Percentage, Diffusing (mESCs [4]; +LIF, replicate iv): 96%
- diffusion coefficient of bound molecules, in words (mESCs [4]; mESCs, n = 4–5): remained unchanged
- diffusion of diffusing molecules versus wildtype (mESCs [4]; mESCs, n = 4–5, p value: 0.0001): moved significantly more quickly than wildtype molecules
- percentages of molecules within diffusing and bound fraction, significance versus WT (mESCs [4]; n = 4–5, p value > 0.165): ns.
- Diffusion coefficient, Diffusing (mESCs [4]; −LIF, replicate i): 1.101 µm2s-1
- Percentage, Bound (mESCs [4]; −LIF, replicate i): 10%
- Percentage, Diffusing (mESCs [4]; −LIF, replicate i): 90%
- Diffusion coefficient, Bound (mESCs [4]; −LIF, replicate ii): 0.098 µm2s-1
- Diffusion coefficient, Diffusing (mESCs [4]; −LIF, replicate ii): 1.500 µm2s-1
- Percentage, Bound (mESCs [4]; −LIF, replicate ii): 16.6%
- Percentage, Diffusing (mESCs [4]; −LIF, replicate ii): 83.4%
